Data reported in PubChem BioAssay (NCI).
“And” between values parts separate entries of the source, which are not always exact repeats. Equal values may be shown once.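 Exposure lasted 48 hours, with cells grown in 96-well plates and compounds tested at five concentrations. Abbreviation: GI50, concentration required for 50% inhibition of growth. Definition used: TGI = concentration required for complete inhibition of growth.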

Key:
Assay in all cases: NCI tumour cell line growth inhibition, 48 h
[1] = test system: UACC-257 melanoma
[2] = test system: A498 renal
[3] = test system: HCC-2998 colon
[4] = test system: BT-549 breast
[5] = test system: 786-0 renal
[6] = test system: MDA-MB-231 breast
[7] = test system: SK-OV-3 ovarian
[8] = test system: OVCAR-4 ovarian
[9] = test system: IGROV1 ovarian
[10] = test system: NCI/ADR-RES ovarian

Structure (SMILES)	GI50 [1] [µM]	TGI [1]	GI50 [2] [µM]	TGI [2]	GI50 [3] [µM]	TGI [3]	GI50 [4] [µM]	TGI [4]	GI50 [5] [µM]	TGI [5]	GI50 [6] [µM]	TGI [6]	GI50 [7] [µM]	TGI [7]	GI50 [8] [µM]	TGI [8]	GI50 [9] [µM]	TGI [9]	GI50 [10] [µM]	TGI [10]
COc1ccc(CN2C(=O)/C(=C\C(=O)c3ccc(OCCN4CCCC4)cc3)c3ccccc32)cc1	20.2	40.3 µM	18.1	38.7 µM	2.6	6.12 µM	10.6	23.3 µM	1.68	3.19 µM	2.17	4.44 µM	18.6	34 µM	2.18	5.44 µM	1.99	3.78 µM	5.71	47.7 µM
C=C1C[C@@H](O)[C@@H](Br)C(C)(C)[C@]12CCC(C)(Br)C(Cl)C2 (stereo partly drawn)	18.6	> 50 µM and 34.2 µM	18	> 50 µM and 31.9 µM	17.1	> 50 µM and 30.8 µM	18.9	> 50 µM and 38.3 µM	17.9	> 50 µM and 33.7 µM	16.8	> 50 µM and 31.5 µM	24	> 50 µM and 64.6 µM	15.7	> 50 µM and 32.9 µM	18	> 50 µM and 36.1 µM	22.5	> 50 µM and 56 µM
CCOC(=O)Nc1ccc2nc(N3CCCCCC3)sc2c1	15.2	97.2 µM	2.1	32.2 µM	7.59	48 µM	12	49.6 µM	6.86	> 100 µM	3.19	> 56.8 µM	2.36	> 72.8 µM	23.7	> 100 µM	4.36	> 100 µM	1.03	> 36.6 µM
C=C[C@H]1CN2CCc3c([nH]c4c([C@@H]5CCCN5C)c(O)ccc34)[C@@H]2C[C@@H]1C[C@H]1c2[nH]c3ccccc3c2CCN1C	–	–	–	3.11 µM and 3.44 µM	0.142	0.297 µM	–	3.27 µM and 2.96 µM	1.63	3.15 µM and 2.83 µM	–	3.16 µM and 3.46 µM	2.03	3.23 µM [middle of 4 runs]	–	3.2 µM	–	2.67 µM and 2.75 µM	–	3.34 µM and 3.52 µM
Nc1nc(=S)c2ncn(C3OC(CO)C(O)C3O)c2[nH]1 (stereo not drawn)	31.8	> 100 µM	5.11	> 87.6 µM	0.7	5 µM	2.12	> 100 µM	0.348	–	1.39	> 100 µM	0.379	7.76 µM	1.86	> 100 µM	3.77	> 35.5 µM	0.4	–
CC(=O)N(C)c1cc(NCc2ccccc2)ccc1OCc1ccccc1	–	31.1 µM	–	30.8 µM	–	35 µM	–	40.3 µM	–	76.6 µM	–	30.2 µM	–	43.1 µM	–	36.6 µM	–	30.5 µM	–	44.8 µM
CC1NC(C(=O)O)Cc2cc(O)c(O)cc21 (stereo not drawn)	–	> 100 µM	–	> 100 µM	–	> 100 µM	–	> 100 µM	–	> 100 µM	–	> 100 µM	–	> 100 µM	–	> 100 µM	–	> 100 µM	–	> 100 µM
COc1ccc2nc3cc(Cl)ccc3c(NCCNCC(O)CO)c2c1 (stereo not drawn)	3.94	12.9 µM	0.245	2.64 µM	1.59	6.55 µM	6.69	20.8 µM	2.34	12.3 µM	1.25	5.83 µM	2.43	7.95 µM	1.35	9.15 µM	1.7	11.7 µM	16.2	36.1 µM
CCC1(OC(=O)CNC)C(=O)OCc2c1cc1n(c2=O)Cc2cc3ccccc3nc2-1 (stereo not drawn)	–	0.762 µM	–	0.104 µM	–	1.57 µM	–	5.11 µM	–	0.0152 µM	–	3.94 µM	–	0.152 µM	–	0.493 µM	–	2.21 µM	–	0.0151 µM
Nc1c(C(=O)c2ccc(C#CCN3CCOCC3)cc2)cnn1-c1ccc(F)cc1	> 25	> 25 µM	> 25	> 25 µM	> 25	> 25 µM	> 25	> 25 µM	> 25	> 25 µM	> 25	> 25 µM	> 25	> 25 µM	> 25	> 25 µM	> 25	> 25 µM	> 25	> 25 µM
C[C@]12CCCN1CC1=NNC(=O)c3cc(F)cc4[nH]c2c1c34	25.1	73.6 µM	13.9	34.3 µM	25.1	91.6 µM	23.2	99.6 µM	26.2	> 100 µM	18	66.5 µM	25.9	> 100 µM	24.9	> 100 µM	21.5	> 100 µM	20	71.8 µM
COC1=CC(c2ccc[nH]2)=N/C1=C\c1[nH]c(C)c(C(=O)Oc2ccccc2)c1C	0.545	2.41 µM	0.648	2.56 µM	0.243	1.42 µM	0.384	4.2 µM	0.313	1.64 µM	0.0795	0.457 µM	1.68	7.35 µM	0.236	–	–	–	0.185	1.46 µM
C=C1C(=O)O[C@@H]2C[C@@H]1CC[C@]1(C)O[C@H]1CC/C(C)=C/CC[C@@]2(C)O	11.3	31.8 µM	23.3	74.5 µM	10.6	23.6 µM	16.9	39.3 µM	17	31.2 µM	21.4	48.8 µM	25.5	64 µM	–	–	31.7	> 100 µM	20.9	56.3 µM
COc1ccc(C2=NN(C=O)C(c3ccc(OS(=O)(=O)c4ccc(C)cc4)c(OC)c3)C2)cc1 (stereo not drawn)	4.22	> 100 µM	1.81	> 100 µM	> 100	> 100 µM	3.35	58.1 µM	21.6	> 100 µM	5.52	> 100 µM	8.88	> 100 µM	–	–	18.8	> 100 µM	4.5	> 100 µM
